Assay [1] has as its target T1, LGC-55 (Caenorhabditis elegans, UniProt G5EEC1).
T1 sequence (G5EEC1 17-538): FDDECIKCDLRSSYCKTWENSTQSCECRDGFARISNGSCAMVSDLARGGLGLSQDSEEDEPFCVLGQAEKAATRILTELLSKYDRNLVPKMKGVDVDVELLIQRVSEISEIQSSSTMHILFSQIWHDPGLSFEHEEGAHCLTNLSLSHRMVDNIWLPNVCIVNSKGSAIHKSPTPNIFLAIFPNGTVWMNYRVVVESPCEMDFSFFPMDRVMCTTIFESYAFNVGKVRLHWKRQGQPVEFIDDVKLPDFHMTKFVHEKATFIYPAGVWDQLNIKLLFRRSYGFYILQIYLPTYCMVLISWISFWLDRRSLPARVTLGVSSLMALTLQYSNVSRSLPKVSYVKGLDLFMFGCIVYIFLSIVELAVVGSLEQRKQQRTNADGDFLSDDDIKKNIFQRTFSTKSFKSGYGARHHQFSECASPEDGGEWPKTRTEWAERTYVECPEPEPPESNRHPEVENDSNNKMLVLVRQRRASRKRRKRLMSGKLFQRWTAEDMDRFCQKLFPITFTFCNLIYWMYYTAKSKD
The assay is described as follows: two-electrode voltage clamp, Xenopus oocytes. The class given is cell-based. Background: In two-electrode clamp one electrode senses voltage and the other passes current.

Assay [2] has as its target T1, LGC-55. The assay is described as follows: two-electrode voltage clamp, Xenopus oocytes. The class given is cell-based. Conditions: weak agonist; ND96, -60 mV, 10 s application, 22-24 °C.

Take `NCCc1ccc(O)cc1` [tyramine]: it took 12.1 ± 1.2 µM to reach a half-maximal effect at LGC-55 [1] (EC50).

Consider `NC[C@H](O)c1ccc(O)cc1` [octopamine], for which the midpoint of the response on LGC-55 [1], the EC50, lay at 215.2 ± 1.1 µM.

Take `NCCc1c[nH]c2ccc(O)cc12` [serotonin]: the “small inward currents at millimolar concentrations” value on LGC-55 [2] is “serotonin only elicited small LGC-55-dependent inward currents at millimolar concentrations”.

Consider `NCCc1ccc(O)c(O)c1` [dopamine], for which the EC50 (usually the concentration that produces a half-maximal response) at LGC-55 [1] turned out to be 158.8 ± 1.1 µM.
